One may read the IC50 as the concentration that inhibits the measured activity by half.

In US12486274B2, “Substituted pyrazolo-pyrimidines and uses thereof” (Verge Analytics, Inc., priority 2020, dated 2025) one finds IC50 data, which are given here for 24 compounds.

Where only a bound is given, the exact number is not on record here.

The target of the experiment is Full length human recombinant PIKFYVE (Homo sapiens (Human), UniProt Q9Y2I7). Kind of experiment: Inhibition of PIKfyve (microfluidic electrophoresis kinase assay). It counts as biochemical. Conditions: 2 nM enzyme, PI3P/PS substrate, 3 h at room temperature, 12 concentrations. The protocol: Full length human recombinant PIKFYVE expressed in baculovirus expression system as N-terminal GST-fusion protein (265 kDa) was obtained from Carna Biosciences (Kobe, Japan). The kinase substrate was prepared by mixing and sonicating fluorescently-labeled phosphatidylinositol 3-phosphate (PI3P) with phospho-L-serine (PS) at a 1:10 ratio in 50 mM HEPES buffer pH7.5.
Sequence of Full length human recombinant PIKFYVE (Q9Y2I7 whole entry, the tested form may be a part): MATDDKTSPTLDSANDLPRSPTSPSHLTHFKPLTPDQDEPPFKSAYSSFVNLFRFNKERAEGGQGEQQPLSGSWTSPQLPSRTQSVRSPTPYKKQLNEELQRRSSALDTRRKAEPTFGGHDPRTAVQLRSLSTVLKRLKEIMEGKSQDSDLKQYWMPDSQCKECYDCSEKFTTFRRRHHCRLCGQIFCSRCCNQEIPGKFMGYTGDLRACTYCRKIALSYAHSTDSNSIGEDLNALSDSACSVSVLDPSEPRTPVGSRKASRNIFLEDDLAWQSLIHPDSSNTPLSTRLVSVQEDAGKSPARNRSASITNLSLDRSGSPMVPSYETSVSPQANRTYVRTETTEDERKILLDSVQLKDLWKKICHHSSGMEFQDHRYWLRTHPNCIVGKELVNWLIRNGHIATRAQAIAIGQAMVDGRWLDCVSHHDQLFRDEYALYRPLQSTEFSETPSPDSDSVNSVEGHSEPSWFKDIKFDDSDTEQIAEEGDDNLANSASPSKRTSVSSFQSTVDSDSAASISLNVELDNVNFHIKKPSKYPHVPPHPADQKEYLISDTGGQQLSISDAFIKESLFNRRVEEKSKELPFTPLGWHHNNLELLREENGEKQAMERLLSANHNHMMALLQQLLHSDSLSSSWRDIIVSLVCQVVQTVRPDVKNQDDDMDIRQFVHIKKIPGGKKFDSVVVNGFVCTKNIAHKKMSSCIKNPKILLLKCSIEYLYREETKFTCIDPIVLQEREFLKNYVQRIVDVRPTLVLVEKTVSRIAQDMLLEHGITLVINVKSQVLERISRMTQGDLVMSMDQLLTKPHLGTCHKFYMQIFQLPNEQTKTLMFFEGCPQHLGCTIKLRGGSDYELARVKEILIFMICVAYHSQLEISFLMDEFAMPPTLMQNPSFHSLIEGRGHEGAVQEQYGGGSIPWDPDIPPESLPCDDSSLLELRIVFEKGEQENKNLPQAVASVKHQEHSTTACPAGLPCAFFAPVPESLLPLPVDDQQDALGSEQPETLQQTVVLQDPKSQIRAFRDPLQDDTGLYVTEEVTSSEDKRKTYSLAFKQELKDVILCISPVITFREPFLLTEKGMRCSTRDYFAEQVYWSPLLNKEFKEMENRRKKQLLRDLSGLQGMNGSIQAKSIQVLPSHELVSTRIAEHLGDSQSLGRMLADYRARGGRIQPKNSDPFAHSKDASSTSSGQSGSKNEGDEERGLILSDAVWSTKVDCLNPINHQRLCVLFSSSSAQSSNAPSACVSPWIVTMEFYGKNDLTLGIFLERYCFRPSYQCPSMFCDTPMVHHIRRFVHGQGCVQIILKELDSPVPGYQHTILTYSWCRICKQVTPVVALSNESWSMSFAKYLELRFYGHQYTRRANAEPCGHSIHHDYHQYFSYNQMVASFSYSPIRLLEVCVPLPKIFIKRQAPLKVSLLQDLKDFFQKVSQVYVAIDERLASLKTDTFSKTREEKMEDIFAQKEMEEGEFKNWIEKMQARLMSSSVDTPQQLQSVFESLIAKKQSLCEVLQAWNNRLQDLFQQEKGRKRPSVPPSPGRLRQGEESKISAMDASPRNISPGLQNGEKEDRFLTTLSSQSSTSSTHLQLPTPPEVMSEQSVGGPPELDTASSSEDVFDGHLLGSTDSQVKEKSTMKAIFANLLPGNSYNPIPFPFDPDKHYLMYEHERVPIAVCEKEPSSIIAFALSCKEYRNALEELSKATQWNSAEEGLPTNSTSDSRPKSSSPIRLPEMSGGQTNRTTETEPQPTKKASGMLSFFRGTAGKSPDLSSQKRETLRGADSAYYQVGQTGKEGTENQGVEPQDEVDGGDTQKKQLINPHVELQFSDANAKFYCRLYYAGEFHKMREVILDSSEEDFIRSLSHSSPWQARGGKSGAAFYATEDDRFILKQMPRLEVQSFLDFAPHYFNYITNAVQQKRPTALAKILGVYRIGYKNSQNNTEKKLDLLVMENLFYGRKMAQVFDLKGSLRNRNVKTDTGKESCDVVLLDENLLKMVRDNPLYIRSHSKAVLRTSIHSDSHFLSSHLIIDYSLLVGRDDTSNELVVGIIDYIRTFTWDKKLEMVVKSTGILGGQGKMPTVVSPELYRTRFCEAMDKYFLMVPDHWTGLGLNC
The kinase reactions were assembled in 384-well plates (Greiner) in a total volume of […] as follows. Kinase protein was pre-diluted in an assay buffer comprising 25 mM HEPES, pH 7.5, 1 mM DTT, 2.5 mM MgCl2, and 2.5 mM MnCl2, and 0.005% Triton X-100, and dispensed into a 384-well plate (10 μL per well). Test compounds were serially pre-diluted in DMSO and added to the protein samples by acoustic dispensing (Labcyte Echo). The concentration of DMSO was equalized to 1% in all samples. All test compounds were tested at 12 concentrations. Apilimod was used as a reference compound and was tested in identical manner in each assay plate. Control samples (0%-inhibition, in the absence of inhibitor, DMSO only) and 100%-inhibition (in the absence of enzyme) were assembled in replicates of four and were used to calculate %-inhibition in the presence of compounds. The reactions were initiated by addition of 10 μL of 2× PI3P/PS substrate supplemented with ATP. The final concentration of enzyme was 2 nM, the final concentration of ATP was 10 mM, and the final concentration of PI3P/PS substrate was 1 μM (PI3P). The kinase reactions were allowed to proceed for 3 h at room temperature. Following incubation, the reactions were quenched by addition of […] of termination buffer (100 mM HEPES, pH 7.5, 0.01% Triton X-100, 20 mM EDTA). Terminated plates were analyzed on a microfluidic electrophoresis instrument (Caliper LabChip® 3000, Caliper Life Sciences/Perkin Elmer). The change in the relative fluorescence intensity of the PI (3) P substrate and PI (3,5) P product peaks was measured. The activity in each test sample was determined as the product to sum ratio (PSR): P/(S+P), where P is the peak height of the product, and S is the peak height of the substrate. Percent inhibition (Pinh) was determined using the following equation: Pinh=(PSR0% inh−PSRcompound)/(PSR0% inh−PSR100% inh)*100 in which PSRcompound is the product/sum ratio in the presence of compound, PSR0% inh is the product/sum ratio in the absence of compound, and the PSR100% inh is the product/sum ratio in the absence of the enzyme.
As for `Cc1cccc(-c2ccn(-c3cc(N4CCOCC4)n4nc(C(=O)NC5CCN(C)CC5)cc4n3)n2)c1` [Compound 54, N-(1-methyl-4-piperidyl)-7-morpholino-5-[3-(m-tolyl)pyrazol-1-yl]pyrazolo[1,5-a]pyrimidine-2-carboxamide], the IC50 was determined as 0.126 µM.

As for `Cn1cc(-c2cc3nc(-n4ccc(-c5ccccc5)n4)cc(N4CCOCC4)n3n2)cn1` [Compound 115, 4-[2-(1-methylpyrazol-4-yl)-5-(3-phenylpyrazol-1-yl)pyrazolo[1,5-a]pyrimidin-7-yl]morpholine], the IC50 was determined as 0.0624 µM.

Regarding `Cc1cccc(-c2ccn(-c3cc(N4CCOCC4)n4nc(-c5ccn(C)n5)cc4n3)n2)c1` [Compound 61, 4-[2-(1-methylpyrazol-3-yl)-5-[3-(m-tolyl)pyrazol-1-yl]pyrazolo[1,5-a]pyrimidin-7-yl]morpholine], the IC50 is 0.0024 µM.

Consider `Cc1cccc(-c2ccn(-c3cc(N4CCOCC4)n4nc(C(=O)NS(C)(=O)=O)cc4n3)n2)c1` [Example 35, N-(methylsulfonyl)-7-morpholino-5-(3-(m-tolyl)-1H-pyrazol-1-yl)pyrazolo[1,5-a]pyrimidine-2-carboxamide], for which the IC50 worked out at 0.422 µM.

Regarding `Cc1cccc(-c2cnn(-c3cc(N4CCOCC4)n4nc(C(=O)NC5CCN(C)CC5)cc4n3)c2)c1` [Compound 55, N-(1-methyl-4-piperidyl)-7-morpholino-5-[4-(m-tolyl)pyrazol-1-yl]pyrazolo[1,5-a]pyrimidine-2-carboxamide], the IC50 came to 6.42 µM.

In the case of `Brc1cccc(-c2ccn(-c3cc(N4CCOCC4)n4nc(-c5cccnc5)cc4n3)n2)c1` [Compound 106, 4-[5-[3-(3-bromophenyl)pyrazol-1-yl]-2-(3-pyridyl)pyrazolo[1,5-a]pyrimidin-7-yl]morpholine], the IC50 was determined as 0.0199 µM.

Regarding `Cc1cc(-c2cc3nc(-n4ccc(-c5ccccc5)n4)cc(N4CCOCC4)n3n2)nn1CCN(C)C` [Compound 99, N,N-dimethyl-2-[5-methyl-3-[7-morpholino-5-(3-phenylpyrazol-1-yl)pyrazolo[1,5-a]pyrimidin-2-yl]pyrazol-1-yl]ethanamine], the IC50 is 0.127 µM.

As to `Cc1cccc(-c2ccn(-c3cc(N4CCOCC4)n4nc(C(=O)N[C@@H]5CCOC5)cc4n3)n2)c1` [Compound 51, 7-morpholino-5-[3-(m-tolyl)pyrazol-1-yl]-N-[(3R)-tetrahydrofuran-3-yl]pyrazolo[1,5-a]pyrimidine-2-carboxamide], the IC50 was 0.0647 µM.

Consider `COCC(COC)NC(=O)c1cc2nc(-n3ccc(-c4cccc(C)c4)n3)cc(N3CCOCC3)n2n1` [Example 39, N-(1,3-dimethoxypropan-2-yl)-7-morpholino-5-(3-(m-tolyl)-1H-pyrazol-1-yl)pyrazolo[1,5-a]pyrimidine-2-carboxamide], for which the IC50 amounted to 0.0996 µM.

In the case of `Cc1cc(-c2cc3nc(-n4ccc(-c5ccncc5)n4)cc(N4CCOCC4)n3n2)nn1CCN(C)C` [Compound 93, N,N-dimethyl-2-[5-methyl-3-[7-morpholino-5-[3-(4-pyridyl)pyrazol-1-yl]pyrazolo[1,5-a]pyrimidin-2-yl]pyrazol-1-yl]ethanamine], the IC50 is more than 10 µM.

As to `Cc1cccc(-c2ccn(-c3cc(N4CCOCC4)n4nc(C(=O)N5CCC56COC6)cc4n3)n2)c1` [Example 46, (7-morpholino-5-(3-(m-tolyl)-1H-pyrazol-1-yl)pyrazolo[1,5-a]pyrimidin-2-yl) (6-oxa-1-azaspiro[3.3]heptan-1-yl)methanone], the IC50 is 0.113 µM.

Consider `c1ccc(-c2ccn(-c3cc(N4CCOCC4)n4nc(-c5cccnn5)cc4n3)n2)cc1` [Compound 88, 4-[5-(3-phenylpyrazol-1-yl)-2-pyridazin-3-yl-pyrazolo[1,5-a]pyrimidin-7-yl]morpholine], for which the IC50 was determined as 0.208 µM.

With `c1ccc(-c2cnn(-c3cc(N4CCOCC4)n4nc(-c5cccnc5)cc4n3)c2)cc1` [Compound 79, 4-[5-(4-phenylpyrazol-1-yl)-2-(3-pyridyl)pyrazolo[1,5-a]pyrimidin-7-yl]morpholine], the IC50 was found to be 0.333 µM.

In the case of `Cc1cnn(-c2cc(N3CCOCC3)n3nc(-c4ccncc4)cc3n2)c1` [Example 12, 4-[5-(4-methylpyrazol-1-yl)-2-(4-pyridyl)pyrazolo[1,5-a]pyrimidin-7-yl]morpholine], the IC50 was more than 10 µM.

As to `c1cc(-c2cc3nc(Nc4cc(-c5ccncc5)[nH]n4)cc(N4CCOCC4)n3n2)ccn1` [Example 6, 7-morpholino-2-(4-pyridyl)-N-[5-(4-pyridyl)-1H-pyrazol-3-yl]pyrazolo[1,5-a]pyrimidin-5-amine], the IC50 amounted to 6.1 µM.

With `Nc1ncccc1-c1cc2nc(-n3ccc(-c4ccccc4)n3)cc(N3CCOCC3)n2n1` [Compound 70, 3-[7-morpholino-5-(3-phenylpyrazol-1-yl)pyrazolo[1,5-a]pyrimidin-2-yl]pyridin-2-amine], the IC50 is 0.378 µM.

For the compound `Nc1nccc(-c2cc3nc(-n4ccc(-c5ccccc5)n4)cc(N4CCOCC4)n3n2)n1` [Compound 104, 4-[7-morpholino-5-(3-phenylpyrazol-1-yl)pyrazolo[1,5-a]pyrimidin-2-yl]pyrimidin-2-amine], the IC50 is 0.106 µM.

For the compound `Cc1cccc(-c2ccn(-c3cc(N4CCOCC4)n4nc(C(=O)N(C)C5CC5)cc4n3)n2)c1` [Example 26, N-cyclopropyl-N-methyl-7-morpholino-5-(3-(m-tolyl)-1H-pyrazol-1-yl)pyrazolo[1,5-a]pyrimidine-2-carboxamide], the IC50 is 0.162 µM.

Take `Cc1cccc(-c2ccn(-c3cc(N4CCOCC4)n4nc(-c5cc(C)nn5C)cc4n3)n2)c1` [Compound 84, 4-[2-(2,5-dimethylpyrazol-3-yl)-5-[3-(m-tolyl)pyrazol-1-yl]pyrazolo[1,5-a]pyrimidin-7-yl]morpholine]: the IC50 was determined as 0.0026 µM.

As to `Cc1cccc(-c2ccn(-c3cc(N4CCOCC4)n4nc(C(=O)N(C)C5CCCC5)cc4n3)n2)c1` [Example 37, N-cyclopentyl-N-methyl-7-morpholino-5-(3-(m-tolyl)-1H-pyrazol-1-yl)pyrazolo[1,5-a]pyrimidine-2-carboxamide], the IC50 turned out to be 0.213 µM.

For `Cc1ccccc1-c1cc(N)n(-c2cc(N3CCOCC3)n3nc(-c4ccncc4)cc3n2)n1` [Example 8, 1-(7-morpholino-2-(pyridin-4-yl)pyrazolo[1,5-a]pyrimidin-5-yl)-3-(o-tolyl)-1H-pyrazol-5-amine], the IC50 came out at 6.69 µM.

Regarding `Cc1cccc(-c2ccn(-c3cc(N4CCOCC4)n4nc(C(=O)NCCN(C)C)cc4n3)n2)c1` [Example 40, N-(2-(dimethylamino)ethyl)-7-morpholino-5-(3-(m-tolyl)-1H-pyrazol-1-yl)pyrazolo[1,5-a]pyrimidine-2-carboxamide], the IC50 worked out at 0.258 µM.

Take `Cc1cccc(-c2cnn(-c3cc(N4CCOCC4)n4nc(-c5cccnc5N)cc4n3)c2)c1` [Compound 59, 3-[7-morpholino-5-[4-(m-tolyl)pyrazol-1-yl]pyrazolo[1,5-a]pyrimidin-2-yl]pyridin-2-amine]: the IC50 was more than 20 µM.

Take `Cc1cccc(-c2ccn(-c3cc(N4CCOCC4)n4nc(C(=O)N5CCOCC5)cc4n3)n2)c1` [Example 31, morpholino (7-morpholino-5-(3-(m-tolyl)-1H-pyrazol-1-yl)pyrazolo[1,5-a]pyrimidin-2-yl)methanone]: the IC50 stood at 0.242 µM.
